Patent US12060349B2, “Glucosylceramide synthase inhibitors” (Genzyme Corporation, priority 2012, dated 2024)
pIC50: −log10 of the molar value. Where two headings read alike, the source gives them in different places.

Assays:
[1] = system: GM3 expression on the cell surface, B16 mouse melanoma cells; test: cell based phenotypic assay, cell surface GM3 by antibody mediated immunofluorescence, B16 (GM3 B16 IC50); conditions: Mus musculus, 50% inhibition of GM3 expression on the cell surface
Experimental: (§1) The cell based assay was performed in two different cell types, B16 and C32. Cell viability was also assessed in the second, cell-based assay.
(§2) The “Compound Number” in the table corresponds to the compound disclosed in the Example of the same number. […] The results of the cell based assays (performed in two different cell systems, i.e. B16 mouse melanoma or C32 human melanoma cells) are expressed as “GM3 B16 IC50” or “GM3 C32 IC50” for the B16 assay and the C32 assay, respectively. […] The results of the viability assays are expressed as “Viability, B16 IC50” or “Viability, C32 IC50”, respectively. These values represent the concentration of the compound causing 50% cell death. Values greater than 10 represent a lack of cell death.

B16 mouse melanoma cells = test: cell viability in the B16 cell-based assay (Viability, B16 IC50); conditions: concentration causing 50% cell death, values greater than 10 represent a lack of cell death, read-out: Viability, B16 IC50
Experimental: as §1, §2

[2] = system: GM3 expression on the cell surface, C32 human melanoma cells; test: cell based phenotypic assay, cell surface GM3 by antibody mediated immunofluorescence, C32 (GM3 C32 IC50); conditions: Homo sapiens, 50% inhibition of GM3 expression on the cell surface
Experimental: as §1, §2

C32 human melanoma cells = test: cell viability in the C32 cell-based assay (Viability, C32 IC50); conditions: concentration causing 50% cell death, values greater than 10 represent a lack of cell death, read-out: Viability, C32 IC50
Experimental: as §1, §2

[3] = target: T1, glucosylceramide synthase (Homo sapiens, UniProt Q16739); test: microsomal assay measuring conversion of ceramide to glucosylceramide by HPLC (GCS IC50); type: biochemical; conditions: concentration causing 50% inhibition of glucosylceramide synthase activity
T1 construct: Microsomes were isolated from A375 human melanoma cells; endogenous in cells; host or cells: A375 human melanoma cells (microsomal fraction, 100,000 g pellet)
T1 sequence (Q16739 1-394): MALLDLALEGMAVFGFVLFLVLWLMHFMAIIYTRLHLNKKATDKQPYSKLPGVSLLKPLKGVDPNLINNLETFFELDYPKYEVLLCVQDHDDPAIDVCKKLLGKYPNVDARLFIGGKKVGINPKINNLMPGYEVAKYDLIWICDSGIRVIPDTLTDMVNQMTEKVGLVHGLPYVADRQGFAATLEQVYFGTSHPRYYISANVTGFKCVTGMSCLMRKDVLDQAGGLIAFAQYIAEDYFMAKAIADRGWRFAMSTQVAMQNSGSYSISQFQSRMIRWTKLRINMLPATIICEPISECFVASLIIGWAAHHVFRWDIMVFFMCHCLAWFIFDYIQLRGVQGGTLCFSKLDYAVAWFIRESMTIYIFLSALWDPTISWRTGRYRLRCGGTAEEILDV
Experimental: Inhibition of glucosylceramide synthase activity for certain compounds of the invention were measured with 1) a microsomal assay that directly measures the conversion of ceramide to glucosylceramide by HPLC and 2) second, cell based, phenotypic assay that monitors cell surface expression of the downstream lipid GM3 by antibody mediated immunofluorescence. The cell based assay was performed in two different cell types, B16 and C32. Cell viability was also assessed in the second, cell-based assay.
The “Compound Number” in the table corresponds to the compound disclosed in the Example of the same number. The results of the microsomal assay are expressed as “GCS IC50”, which represents the concentration of the compound causing 50% inhibition of glucosylceramide synthase activity. The results of the cell based assays (performed in two different cell systems, i.e. B16 mouse melanoma or C32 human melanoma cells) are expressed as “GM3 B16 IC50” or “GM3 C32 IC50” for the B16 assay and the C32 assay, respectively. These values represent the concentration of the compound causing 50% inhibition of GM3 expression on the cell surface. The results of the viability assays are expressed as “Viability, B16 IC50” or “Viability, C32 IC50”, respectively. These values represent the concentration of the compound causing 50% cell death. Values greater than 10 represent a lack of cell death.

[4] = B16 mouse melanoma cells, read-out: GM3 B16 IC50
[5] = C32 human melanoma cells, read-out: GM3 C32 IC50

| SMILES | pIC50 [1, 4] | pIC50 [2, 5] | pIC50 [3] | pIC50 (B16 mouse melanoma cells; Mus musculus, B16, B16 cells) | pIC50 (C32 human melanoma cells; Homo sapiens, C32, C32 cells) | pIC50 ([1]; read-out: GM3 B16 IC50, B16 mouse melanoma cells) | pIC50 (B16 mouse melanoma cells; B16 cells) | pIC50 ([2]; read-out: GM3 C32 IC50, C32 human melanoma cells) | pIC50 (C32 human melanoma cells; C32 cells) |
| --- | --- | --- | --- | --- | --- | --- | --- | --- | --- |
| CC1(NC(=O)N2CCN(c3cccc(-c4ccccc4)c3)CC2)CN2CCC1CC2 (stereo not shown) [Example 15, 4-([1,1′-Biphenyl]-3-yl)-N-(3-methylquinuclidin-3-yl)piperazine-1-carboxamide] | 6.43 | 6.76 | 6.08 | ≤ 5.00 | ≤ 5.00 | – | – | – | – |
| O=C(N1CCN(c2cccc(-c3ccccc3)c2)CC1)N1CCN2CCC1CC2 [Example 17, (4-([1,1′-Biphenyl]-3-yl)piperazin-1-yl)(1,4-diazabicyclo[3.2.2]nonan-4-yl)methanone] | 5.20 | 5.20 | 4.91 | ≤ 5.00 | ≤ 5.00 | – | – | – | – |
| O=C(OC1CN2CCC1CC2)N1CCN(c2cccc(-c3ccccc3)c2)CC1 (stereo not shown) [Example 18, Quinuclidin-3-yl 4-([1,1′-biphenyl]-3-yl)piperazine-1-carboxylate] | – | – | 6.26 | – | – | 5.69 | 5.08 | 6.25 | ≤ 5.00 |
| O=C(OC1CCN2CCC1CC2)N1CCN(c2cccc(-c3ccccc3)c2)CC1 (stereo not shown) [Example 19, 1-Azabicyclo[3.2.2]nonan-4-yl 4-([1,1′-biphenyl]-3-yl)piperazine-1-carboxylate] | 5.83 | 6.34 | 5.57 | 5.15 | 5.04 | – | – | – | – |
| O=C(OC1CC2CCN(CC2)C1)N1CCN(c2cccc(-c3ccccc3)c2)CC1 (stereo not shown) [Example 20, 1-Azabicyclo[3.2.2]nonan-3-yl 4-([1,1′-biphenyl]-3-yl)piperazine-1-carboxylate] | 5.35 | 4.97 | 4.78 | 5.11 | ≤ 4.82 | – | – | – | – |
| CCC1(NC(=O)N2CCN(c3cccc(-c4ccccc4)c3)CC2)CN2CCC1CC2 (stereo not shown) [Example 21, 4-([1,1′-Biphenyl]-3-yl)-N-(3-ethylquinuclidin-3-yl)piperazine-1-carboxamide] | 6.77 | 7.60 | 6.54 | 5.14 | 5.50 | – | – | – | – |
| CCC1(NC(=O)N2CCN(c3cccc(-c4ccc(F)cc4)c3)CC2)CN2CCC1CC2 (stereo not shown) [Example 23, N-(3-Ethylquinuclidin-3-yl)-4-(4′-fluoro-[1,1′-biphenyl]-3-yl)piperazine-1-carboxamide] | 6.45 | 7.04 | 5.80 | 5.15 | 5.50 | – | – | – | – |
| O=C(OC1CCN2CCC1CC2)N1CCN(c2cccc(-c3ccc(F)cc3)c2)CC1 (stereo not shown) [Example 24, 1-Azabicyclo[3.2.2]nonan-4-yl 4-(4′-fluoro-[1,1′-biphenyl]-3-yl)piperazine-1-carboxylate] | 5.77 | 5.97 | 5.02 | 5.44 | 5.40 | – | – | – | – |
| CC1(NC(=O)C2CCN(c3cccc(-c4ccc(F)cc4)c3)CC2)CN2CCC1CC2 (stereo not shown) [Example 33, 1-(4′-Fluoro-[1,1′-biphenyl]-3-yl)-N-(3-methylquinuclidin-3-yl)piperidine-4-carboxamide] | 6.63 | 8.30 | 7.66 | 5.16 | 6.00 | – | – | – | – |
| CC1(NC(=O)C2CCN(c3cccc(-c4ccc(F)cc4)c3)CC2)CCN2CCC1CC2 (stereo not shown) [Example 34, 1-(4′-Fluoro-[1,1′-biphenyl]-3-yl)-N-(4-methyl-1-azabicyclo[3.2.2]nonan-4-yl)piperidine-4-carboxamide] | 7.10 | 9.06 | 8.32 | 5.33 | 6.50 | – | – | – | – |
| CC1(NC(=O)C2CCN(c3cccc(-c4ccccc4)c3)CC2)CN2CCC1CC2 (stereo not shown) [Example 35, 1-([1,1′-Biphenyl]-3-yl)-N-(3-methylquinuclidin-3-yl)piperidine-4-carboxamide] | 6.83 | 8.15 | 7.30 | 5.14 | 6.00 | – | – | – | – |
| CC1(NC(=O)C2CCN(c3cccc(-c4ccccc4)c3)CC2)CCN2CCC1CC2 (stereo not shown) [Example 36, 1-([1,1′-Biphenyl]-3-yl)-N-(4-methyl-1-azabicyclo[3.2.2]nonan-4-yl)piperidine-4-carboxamide] | 6.87 | 8.60 | 7.99 | 5.12 | 6.00 | – | – | – | – |
| CC1(NC(=O)C2CCN(c3ccc(-c4ccccc4)cc3)CC2)CN2CCC1CC2 (stereo not shown) [Example 37, 1-([1,1′-Biphenyl]-4-yl)-N-(3-methylquinuclidin-3-yl)piperidine-4-carboxamide] | 5.74 | 6.88 | 5.81 | 5.15 | 5.16 | – | – | – | – |
| CC1(NC(=O)C2CCN(c3ccc(-c4ccccc4)cc3)CC2)CCN2CCC1CC2 (stereo not shown) [Example 38, 1-([1,1′-Biphenyl]-4-yl)-N-(4-methyl-1-azabicyclo[3.2.2]nonan-4-yl)piperidine-4-carboxamide] | 5.59 | 7.05 | 5.98 | 5.18 | 5.17 | – | – | – | – |

Continued, in another order:

| pIC50 [1, 4] | pIC50 [2, 5] | pIC50 [3] | SMILES | pIC50 (B16 mouse melanoma cells; Mus musculus, B16, B16 cells) | pIC50 (C32 human melanoma cells; Homo sapiens, C32, C32 cells) | pIC50 ([1]; read-out: GM3 B16 IC50, B16 mouse melanoma cells) | pIC50 (B16 mouse melanoma cells; B16 cells) | pIC50 ([2]; read-out: GM3 C32 IC50, C32 human melanoma cells) | pIC50 (C32 human melanoma cells; C32 cells) |
| --- | --- | --- | --- | --- | --- | --- | --- | --- | --- |
| 6.74 | 7.91 | 7.31 | CC1(NC(=O)N2CCN(c3cccc(-c4ccccc4)c3)CC2)CCN2CCC1CC2 (stereo not shown) [Example 16, 4-([1,1′-Biphenyl]-3-yl)-N-(4-methyl-1-azabicyclo[3.2.2]nonan-4-yl)piperazine-1-carboxamide] | 5.17 | 6.00 | – | – | – | – |
| < 5.00 | 6.44 | 5.16 | CC1(NC(=O)N2CCN(c3cccc(-c4ncccn4)c3)CC2)CCN2CCC1CC2 (stereo not shown) [Example 26, N-(4-Methyl-1-azabicyclo[3.2.2]nonan-4-yl)-4-(3-(pyrimidin-2-yl)phenyl)piperazine-1-carboxamide] | ≤ 5.00 | ≤ 5.00 | – | – | – | – |
| 5.84 | 7.06 | 5.80 | CC(C)c1cccc(N2CCN(C(=O)NC3(C)CCN4CCC3CC4)CC2)c1 (stereo not shown) [Example 28, 4-(3-Isopropylphenyl)-N-(4-methyl-1-azabicyclo[3.2.2]nonan-4-yl)piperazine-1-carboxamide] | ≤ 5.00 | 5.50 | – | – | – | – |
| 5.58 | 7.42 | 6.51 | CC1(NC(=O)N2CCN(c3cccc(C4CCCCC4)c3)CC2)CCN2CCC1CC2 (stereo not shown) [Example 29, 4-(3-Cyclohexylphenyl)-N-(4-methyl-1-azabicyclo[3.2.2]nonan-4-yl)piperazine-1-carboxamide] | 5.11 | 6.00 | – | – | – | – |
| 6.06 | 7.19 | 6.42 | CC1CN(c2cccc(-c3ccccc3)c2)CCN1C(=O)NC1(C)CCN2CCC1CC2 (stereo not shown) [Example 30, 4-([1,1′-Biphenyl]-3-yl)-2-methyl-N-(4-methyl-1-azabicyclo[3.2.2]nonan-4-yl)piperazine-1-carboxamide] | 5.12 | 6.00 | – | – | – | – |
| 7.15 | 8.82 | 8.39 | CC1CN(C(=O)NC2(C)CCN3CCC2CC3)CCN1c1cccc(-c2ccccc2)c1 (stereo not shown) [Example 31, 4-([1,1′-Biphenyl]-3-yl)-3-methyl-N-(4-methyl-1-azabicyclo[3.2.2]nonan-4-yl)piperazine-1-carboxamide] | 5.12 | 6.00 | – | – | – | – |
